This test deals with T1, AeHGO.
T1 construct: full-length, N-terminal His-tag (pCold II), E. coli Transetta, IMAC purified, tag cut not mentioned; cloning primers encode N-terminus MGNSAE and C-terminus NTLKTA
The test can be described thus: UPLC product assay, Michaelis-Menten fit. It counts as biochemical, Arnebia euchroma. To be noted: basic assay 50 mM MES-Tris pH 7.5, 37°C. The text has this: UPLC product assay, Michaelis-Menten fit on AeHGO

Where [1] appears, read: oxidation, 500 µM NADP+, apparent.

In general, Km refers to the substrate concentration at which the rate is half of its maximum. As to `CC(C)=CCC/C(C=O)=C\Cc1cc(O)ccc1O` [compound 3, (E)-3’’-oxo-GHQ], the Km (reduction, 500 µM NADPH, apparent, fit at low substrate concentrations because of substrate inhibition) came to 9.96 ± 2.87 µM.

`CC(C)=CCC/C(=C/Cc1cc(O)ccc1O)CO` [compound 1, (Z)-3’’-OH-GHQ]: under setting [1], the Michaelis-Menten constant (Km) turned out to be 24.7 ± 5.18 µM.

On to `NC(=O)c1ccc[n+]([C@@H]2O[C@H](COP(=O)(O)OP(=O)(O)OC[C@H]3O[C@@H](n4cnc5c(N)ncnc54)[C@H](OP(=O)(O)O)[C@@H]3O)[C@@H](O)[C@H]2O)c1` [NADP^+], for which the Michaelis-Menten constant (Km) (oxidation, 500 µM (Z)-3''-OH-GHQ) stood at 17.8 ± 5.62 µM.

With `CC(C)=CCC/C(=C\Cc1cc(O)ccc1O)CO` [compound 2, (E)-3’’-OH-GHQ], the Km under setting [1] is 18.7 ± 5.39 µM.

The values above are taken from article PMC10167036, “The discovery and characterization of AeHGO in the branching route from shikonin biosynthesis to shikonofuran in Arnebia euchroma” (Frontiers in Plant Science, 2023).
